Test results as given in patent publication US20050089509A1 (priority 2003, published 2005).
Values joined by “and” are separate entries in the source; they are usually repeats but may differ in a detail not shown here. Equal values may be shown once. Read-outs that look alike come from different tables or passages of the source.

Assays:
F. novicida [1] = assay type: cell-based, F. tularensis subsp. novicida
J774 cells = assay type: cell-based, murine
F. novicida [2] = test system: F. novicida; parameters: species or system F. tularensis subsp. novicida; conditions: in vivo
F. novicida [3] = test system: F. novicida; parameters: species or system F. tularensis subsp. novicida; conditions: in vivo; remark: listed apart in the source
F. novicida [4] = test system: F. novicida; parameters: species or system F. tularensis subsp. novicida; conditions: in vivo; remark: listed apart in the source
[5] = mouse, in vivo
[6] = cited from earlier work

Row | Substance | intracellular bacterial replication in macrophages (F. novicida [1]) | TNF-α increase (J774 cells) | TNF-α detected (in words) (J774 cells) | animals succumbed to the infection by day (F. novicida [2]) | time to death (F. novicida [3]) | bacteria in the liver and spleen (F. novicida [4]) | bacteria recovered from the spleens (F. novicida [4]) | toxicity [5] | efficacy of route of delivery ([5]; ip) | half-life in vivo [6] | toxicity ([6]; in vivo) | survival (F. novicida [2]) | survival / control of the disease (in words) (F. novicida [2])
1 | IFN-γ | markedly inhibited replication of bacteria | 9 fold and 18 fold |  |  |  |  |  |  |  |  |  |  | 
2 | IL-12 | did not inhibit bacterial replication |  | very little TNF-α | ≤ 6 days | significantly increased the time to death | marked reduction of bacteria | no bacteria recovered | no toxicity observed | most efficacious | longer sustainable half-life than IFN-γ | very little toxicity |  | 
3 | gentamicin |  |  |  |  |  |  |  |  |  |  |  | 17% | ineffective in controlling the disease
